The test system of the assay is BDF1 mice, P388 leukemia ip, median survival T/C. The assay is described as follows: NCI In Vivo Anticancer Drug Screen. Data for tumor model P388 Leukemia (intraperitoneal) in B6D2F1 (BDF1) mice. The note with it: endpoint: median survival time, higher = longer survival. The procedure, abridged:
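T/C = treated-group survival ÷ vehicle-control survival; tumour transplanted into mice before dosing.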

Setting [1] is: dose: 100.0 mg/kg/injection, schedule: Q01DX009 (ip), vehicle: saline.
[2] abbreviates: dose: 100.0 mg/kg/injection, schedule: Q04DX003 (ip), vehicle: Klucel (hydroxypropylcellulose) (HPC).
The mark [3] stands for this setting: dose: 200.0 mg/kg/injection, schedule: Q01DX009 (ip), vehicle: saline.
Setting [4] is: dose: 200.0 mg/kg/injection, schedule: Q04DX003 (ip), vehicle: Klucel (hydroxypropylcellulose) (HPC).
Where [5] appears, read: dose: 400.0 mg/kg/injection, schedule: Q04DX003 (ip), vehicle: Klucel (hydroxypropylcellulose) (HPC).
Where [6] appears, read: dose: 50.0 mg/kg/injection, schedule: Q01DX009 (ip), vehicle: saline with Tween-80.
The mark [7] stands for this setting: dose: 100.0 mg/kg/injection, schedule: Q01DX009 (ip), vehicle: saline with Tween-80.
The mark [8] stands for this setting: dose: 200.0 mg/kg/injection, schedule: Q01DX009 (ip), vehicle: saline with Tween-80.
[9] abbreviates: dose: 25.0 mg/kg/injection, schedule: Q01DX009 (ip), vehicle: saline with Tween-80.
[10] abbreviates: dose: 25.0 mg/kg/injection, schedule: Q04DX003 (ip), vehicle: saline with Tween-80.
Where [11] appears, read: dose: 100.0 mg/kg/injection, schedule: Q04DX003 (ip), vehicle: saline with Tween-80.
[12] abbreviates: dose: 200.0 mg/kg/injection, schedule: Q04DX003 (ip), vehicle: saline with Tween-80.
Setting [13] is: dose: 12.5 mg/kg/injection, schedule: Q01DX009 (ip), vehicle: saline with Tween-80.
The mark [14] stands for this setting: dose: 50.0 mg/kg/injection, schedule: Q04DX003 (ip), vehicle: saline with Tween-80.

Values joined by “and” are separate entries in the source; they are usually repeats but may differ in a detail not shown here. Equal values may be shown once. Inconclusive results and toxic doses are left out.

Consider `O=[N+]([O-])c1ccccc1C=Nc1ccccc1`, for which the T/C is, setting by setting: (dose: 100.0 mg/kg/injection, schedule: Q01DX001 (ip), vehicle: Klucel (hydroxypropylcellulose) (HPC)) 100 % of control; under setting [1], 105 % of control; under setting [2], 100 % of control; (dose: 200.0 mg/kg/injection, schedule: Q01DX001 (ip), vehicle: Klucel (hydroxypropylcellulose) (HPC)) 104 % of control; under setting [3], 90 % of control; under setting [4], 110 % of control. The T/C is 95 % of control (dose: 400.0 mg/kg/injection, schedule: Q01DX001 (ip), vehicle: Klucel (hydroxypropylcellulose) (HPC)); 90 % of control (dose: 400.0 mg/kg/injection, schedule: Q01DX009 (ip), vehicle: saline); 100 % of control under setting [5].
Take `O=NN(CCCl)C(=O)NC1C2CC3CC(C2)CC1C3` (centres undefined): the T/C is, setting by setting: (dose: 5.56 mg/kg/injection, schedule: Q01DX009 (ip), vehicle: other) 207 % of control; (dose: 8.3 mg/kg/injection, schedule: Q04DX003 (ip), vehicle: other) 159 % of control; (dose: 8.33 mg/kg/injection, schedule: Q01DX009 (ip), vehicle: other) 287 % of control; (dose: 12.5 mg/kg/injection, schedule: Q01DX009 (ip), vehicle: other) 281 % of control and 305 % of control; (dose: 12.5 mg/kg/injection, schedule: Q04DX003 (ip), vehicle: other) 263 % of control; (dose: 18.7 mg/kg/injection, schedule: Q01DX009 (ip), vehicle: other) 188 % of control. The T/C runs as follows: (dose: 18.7 mg/kg/injection, schedule: Q04DX003 (ip), vehicle: other) 222 % of control; (dose: 25.0 mg/kg/injection, schedule: Q01DX009 (ip), vehicle: other) 231 % of control; (dose: 50.0 mg/kg/injection, schedule: Q01DX009 (ip), vehicle: other) 100 % of control.
On to `O=S(=O)(Nc1ccccn1)c1ccc(N(CCCl)CCCl)cc1`, for which the T/C is, setting by setting: under setting [6], 100 % of control; under setting [7], 95 % of control; under setting [8], 90 % of control.
Turning to `O=[N+]([O-])c1ccc(/C=N/c2ncc(Br)s2)o1`, the T/C was 120 % of control under setting [9]; 104 % of control and 118 % of control under setting [10]; 90 % of control under setting [7]; 118 % of control under setting [11]; 90 % of control under setting [12].
For the compound `Cc1cc(=O)c2cc(N(C)C)ccc2[nH]1`, the T/C is 110 % of control (dose: 0.78 mg/kg/injection, schedule: Q01DX009 (ip), vehicle: water); 100 % of control (dose: 1.56 mg/kg/injection, schedule: Q01DX009 (ip), vehicle: water); 101 % of control (dose: 3.12 mg/kg/injection, schedule: Q01DX009 (ip), vehicle: water); 93 % of control (dose: 6.25 mg/kg/injection, schedule: Q01DX009 (ip), vehicle: water); 94 % of control and 116 % of control (dose: 12.5 mg/kg/injection, schedule: Q01DX009 (ip), vehicle: water); 114 % of control (dose: 25.0 mg/kg/injection, schedule: Q01DX009 (ip), vehicle: water). Also, the T/C is 91 % of control (dose: 50.0 mg/kg/injection, schedule: Q01DX009 (ip), vehicle: water); 95 % of control (dose: 50.0 mg/kg/injection, schedule: Q04DX003 (ip), vehicle: water); 107 % of control (dose: 100.0 mg/kg/injection, schedule: Q01DX009 (ip), vehicle: water); 103 % of control (dose: 100.0 mg/kg/injection, schedule: Q04DX003 (ip), vehicle: water); 103 % of control (dose: 200.0 mg/kg/injection, schedule: Q04DX003 (ip), vehicle: water); 86 % of control (dose: 400.0 mg/kg/injection, schedule: Q01DX009 (ip), vehicle: water). Besides, for the setting “dose: 400.0 mg/kg/injection, schedule: Q04DX003 (ip), vehicle: water”, the T/C is 96 % of control.
For the compound `CN=S(=O)(OC/C=C/COS(=O)(=NC)c1ccc(C)cc1)c1ccc(C)cc1` (centres undefined), the T/C is, setting by setting: under setting [13], 95 % of control; under setting [9], 110 % of control; (dose: 50.0 mg/kg/injection, schedule: Q01DX009 (ip), vehicle: saline + alcohol) 121 % of control; under setting [7], 100 % of control.
Take `CCC(C)NC(=S)N/N=C\C=N/NC(=S)NC(C)CC` (centres undefined): the T/C reads like this: (dose: 75.0 mg/kg/injection, schedule: Q01DX009 (ip), vehicle: saline with Tween-80) 99 % of control; (dose: 150.0 mg/kg/injection, schedule: Q01DX009 (ip), vehicle: saline with Tween-80) 92 % of control; (dose: 300.0 mg/kg/injection, schedule: Q01DX009 (ip), vehicle: saline with Tween-80) 103 % of control.
Regarding `O=C(Nc1ccc(C2=NCCN2)cc1)c1ccc(C(=O)Nc2ccc(C3=NCCN3)cc2)c(Cl)c1`, the T/C reads like this: (dose: 1.56 mg/kg/injection, schedule: Q01DX009 (ip), vehicle: saline with Tween-80) 152 % of control; (dose: 3.13 mg/kg/injection, schedule: Q01DX009 (ip), vehicle: saline with Tween-80) 161 % of control; (dose: 6.25 mg/kg/injection, schedule: Q01DX009 (ip), vehicle: saline with Tween-80) 189 % of control and 204 % of control; (dose: 8.0 mg/kg/injection, schedule: Q01DX010 (ip), vehicle: water) 150 % of control and 160 % of control; (dose: 10.0 mg/kg/injection, schedule: Q01DX010 (ip), vehicle: water) 154 % of control and 195 % of control; (dose: 12.0 mg/kg/injection, schedule: Q01DX010 (ip), vehicle: water) 160 % of control and 170 % of control. Further, the T/C by setting is: under setting [13], 250 % of control and 200 % of control and 211 % of control; under setting [9], 270 % of control and 108 % of control.
Consider `COc1cc(C(=O)N(C)C)cc(OC)c1OC`, for which the T/C (dose: 25.0 mg/kg/injection, schedule: Q01DX009 (ip), vehicle: saline) is 112 % of control; the T/C (dose: 50.0 mg/kg/injection, schedule: Q01DX009 (ip), vehicle: saline) was 98 % of control; the T/C under setting [1] is 98 % of control; the T/C under setting [3] is 101 % of control.
`O=c1nc(Oc2ccccc2)nc2cnccn12`: the T/C under setting [6] was 88 % of control and the T/C under setting [7] was 88 % of control.
Turning to `CCOC(=O)/C=C/c1ccco1`, the T/C by setting is: under setting [6], 100 % of control; under setting [14], 104 % of control; under setting [7], 88 % of control; under setting [11], 109 % of control; under setting [8], 88 % of control; under setting [12], 109 % of control.
For the compound `O=Nc1c(S(=O)(=O)O)cc2cc(S(=O)(=O)O)cc(O)c2c1O.[Cu+2]`, the T/C runs as follows: (dose: 1.25 mg/kg/injection, schedule: Q04DX003 (ip), vehicle: saline) 97 % of control; (dose: 2.5 mg/kg/injection, schedule: Q04DX003 (ip), vehicle: saline) 91 % of control; (dose: 5.0 mg/kg/injection, schedule: Q04DX003 (ip), vehicle: saline) 115 % of control.
`CCOC(=O)Cn1ccc(=O)[nH]c1=O`: the T/C runs as follows: (dose: 75.0 mg/kg/injection, schedule: Q04DX003 (ip), vehicle: saline) 100 % of control; (dose: 150.0 mg/kg/injection, schedule: Q04DX003 (ip), vehicle: saline) 100 % of control; (dose: 300.0 mg/kg/injection, schedule: Q04DX003 (ip), vehicle: saline) 100 % of control.
Take `CCCCC(=O)NN`: the T/C is, setting by setting: (dose: 12.5 mg/kg/injection, schedule: Q04DX003 (ip), vehicle: saline with Tween-80) 99 % of control; under setting [10], 103 % of control; under setting [14], 110 % of control; under setting [11], 100 % of control; under setting [12], 91 % of control.
As to `C1CN2CCC1C1(C2)SSC2(CN3CCC2CC3)S1` (centres undefined), the T/C (dose: 6.25 mg/kg/injection, schedule: Q04DX003 (ip), vehicle: saline) is 100 % of control; the T/C (dose: 12.5 mg/kg/injection, schedule: Q04DX003 (ip), vehicle: saline) is 105 % of control; the T/C (dose: 25.0 mg/kg/injection, schedule: Q04DX003 (ip), vehicle: saline) was 100 % of control.
Consider `CC(c1ccccc1)C1N(c2ccccc2)CCN1c1ccccc1` (centres undefined), for which the T/C reads like this: (dose: 50.0 mg/kg/injection, schedule: Q04DX003 (ip), vehicle: Klucel (hydroxypropylcellulose) (HPC)) 107 % of control; under setting [2], 96 % of control; under setting [4], 107 % of control; under setting [5], 111 % of control.

The values above are taken from PubChem BioAssay AID328 (DTP/NCI, 2004).
